Here are results for three compounds from patent publication US12649734B2, “Bioavailable protein disulfide isomerase inhibitors” (THE CLEVELAND CLINIC FOUNDATION, priority 2020, dated 2026).

For series [1], the system named is MM1.S cells. Briefly: Cell viability assay (CellTiter-Glo), MM1.S. The class given is cell-based, human. The settings on record: Homo sapiens; MM1.S.luc; read-out: IC50 concentration. As for the experimental part: Cell vi-ability and LD50 for inhibitors were measured in 96 well culture plates (2×10^4 cells/well) after 72 h of treatment using CellTiter-Glo® Luminescent Cell Viability Assay (Promega, Madison, WI, USA). (A) Cell survival assay with MM1.S.luc and BTZ-resistant MM1.S.luc cells. […] (C) Comparison of PDIA1 protein levels in MM1.S.luc and MM1.S.luc BTZ-resistant cells. Band intensity was calculated with Image Lab Version 5.2.1. (D) Cell survival assay with 5TGM1.luc and (E) BTZ-resistant 5TGM1.luc cells. (F) MM1.S cell line was exposed to CCF642-34, and BTZ for 72 h for synergistic drug combination test according to Chou and Talalay method. If the […] remained less than 1, the two drugs were determined as synergistic. […] The number of colony-forming units were plotted for each treatment.
(§1) Cell viability assay: Cell viability was measured in 96 well culture plates (2×10^4 cells/well) using CellTiter-Glo® Luminescent Cell Viability Assay (Promega, Madison, WI, USA) according to the manufacturer's protocol.

Series [2] relates to BTZ-resistant MM1.S cells. The series can be described thus: Cell viability assay, BTZ-resistant MM1.S. The class given is cell-based, human. The settings on record: Homo sapiens, MM1.S; MM1S.luc BTZ; read-out: IC50 concentration. As for the experimental part: Cells and reagents: MM1.S-luc-BTZ (BTZ®)-resistant cell line was made in our laboratory. Starting with 1 nM concentration, MM1.S-luc cells were treated with BTZ and exposed continuously for 5 days and removed for 2 days before re-exposure to the drug until the growth of the cells mimicked the parental cell line. Incremental increase of the drug was applied until the concentration of 8 nM was reached. […] BTZ was procured from Millennium Pharmaceuticals Inc. All cell lines that are used in this study and their detailed information are shown in table 1 below.
as §1

For series [3], the system named is RPMI-8226 cells vs CD34+ HSPCs derived from healthy bone marrow. The series can be described thus: In vitro colony-forming assay, myeloma cells versus normal bone marrow CD34+ cells. It is filed as cell-based, human. As to conditions: colonies scored on day 14. The procedure:
In vitro colony-forming assays: Mononuclear cells derived from bone marrow or purified CD34+ cells from a healthy donor, cord blood, or MM cell RPMI-8226 were grown in semi-solid methylcellulose media (MethoCult™, H4435; STEMCELL Technologies) in the presence of indicated compounds and concentrations. A total of 10,000/mL normal bone marrow CD34+ cells and 1000/mL RPMI-8226 cells were plat-ed, and colonies were scored on day 14.

Series [4] concerns MM1.S cells. The series can be described thus: RNA-seq gene expression profiling. As to conditions: 3 μM, 6 h. The class given is cell-based, human. The procedure:
FIGS. 7A-7H provide graphs showing CCF642-34 is selective for PDIA1 inhibition-induced ER stress response pathway. MM1.S cells were treated with 3 μM of either CCF642 or CCF642-34 for 6 h, and gene expression analysis was performed by RNA sequencing. (A,B) Volcano plots showing CCF642-34 and CCF642 compared to DMSO control. The criteria for differential expression were at least a 2-fold change with p value less than 0.05. The analysis was performed in Originlab, Version 2019b (OriginLab Corporation, Northampton, MA, USA). […] The diagram was generated using a web-based bioinformatics server. (D,E) Hierarchical clusterings with heat map of MM1.S cells treated with vehicle CCF642-34 or CCF642 are shown for response to endoplasmic reticulum stress and unfolded protein response gene sets. (F-H) Heat maps of PERK and ATF6 target genes, Nrf2, and ER-associated degradation (ERAD) pathways are compared between control and inhibitor-treated MM1.S cells. Data analysis was performed using a web-based server and the Broad Institute Morpheus software.
RNA-seq and analysis: MM1.S cells were treated with 3 μM of either CCF642 or CCF642-34 for 6 h, and RNA was purified by using the NucleoSpin RNA kit (Takara Bio USA, Inc.; cat. #740955) according to the manufacturer's instruction. The RNA sequencings were completed as reported previously. Guan et al., Commun. Biol., 3, 1-13 (2020) The RNA-seq data were sub-mitted to the Gene Expression Omnibus (GEO) repository at the National Center for Biotechnology Information (NCBI) archives, with assigned GEO accession number GSE167097.

Series [5] can be described thus: Solubility in aqueous buffer (turbidity assay). It is filed as physicochemical. The text has this:
To improve its solubility, potency, and selectivity, the inventors used the CCF642 binding space in the catalytic site for in silico modeling and mapped the binding site to the helix-turn-helix motif composed of the WCGHCK binding site in the aa′ and bb′ domains of the PDIA1 active site (FIG. 4A,B). […] The inventors chose to accomplish this by attaching a 3-carbon flexible linker with a terminal primary amino group to the corresponding phenol followed by coupling to desired L-amino acids (FIGS. 1, 2, 4A). The N-BOC penultimate intermediates were purified using flash silica gel chromatography and then deprotected using 4N HCl in dioxane to generate the corresponding hydrochloride (HCL) salts. The compounds for testing were fully characterized by ^1H, ^13C NMR and high-resolution mass spectroscopy.

Series [6] concerns the target PDI (Homo sapiens, UniProt P07237). As to conditions: reported previously; cited from earlier work.
Series [7] concerns the target PDIA1 (Homo sapiens, UniProt P07237). As to conditions: cited from earlier work.
Series [8] deals with MM1.S cells. Briefly: ER stress response and apoptosis markers by immunoblotting. As to conditions: 3 μM, 4 h. It is filed as cell-based, human. As for the experimental part:
FIGS. 6A-6C provide graphs and images showing PDIA1 inhibition by CCF642 analogues induce acute endoplasmic reticulum (ER) stress response and lead to apoptosis. Multiple myeloma cells (MM1.S) were treated with 3 μM of CCF642, -34, -37, -39, -34-A, and Tunicamycin (as a control). The status of ER sensors (XBP-1S, IRE1α oligomerization, and induction of C/EBP homology protein (CHOP)) along with apoptosis markers (cleaved caspase 3 and PARP1) were monitored. (A) MM1.S cells were treated for 4 h with CCF642 and its indicated analogues. (B) MM1.S cells were treated with CCF642-34 in a time course. (C) MM1.S, MM1.S.luc, and BTZ-resistant MM1.S.luc cells were stained with the H2DCFDA ROS detection and then treated with 2.5 μM CCF642-34 up to 4 h.
Immunoblotting: Immunoblotting was performed as described previously (Dallas et al., Blood, 93, 1697-1706 (1999)) using primary antibodies against PDIA1 (Cat #3501), XBP1-S (Cat #12782); IRE1α (Cat #3294), C/EBP homologous protein (CHOP) (Cat #5554), Caspase-3 (Cat #9665), PARP1 (Cat #9542), and GAPDH (Cat #3683) purchased from Cell Signaling Technology, Inc. (Danvers, MA, USA) and used at 1:1000 dilution, unless mentioned otherwise.
On the technique in general: In western blotting, separated proteins are transferred to a membrane and probed.

Sequence of PDI (P07237 18-508): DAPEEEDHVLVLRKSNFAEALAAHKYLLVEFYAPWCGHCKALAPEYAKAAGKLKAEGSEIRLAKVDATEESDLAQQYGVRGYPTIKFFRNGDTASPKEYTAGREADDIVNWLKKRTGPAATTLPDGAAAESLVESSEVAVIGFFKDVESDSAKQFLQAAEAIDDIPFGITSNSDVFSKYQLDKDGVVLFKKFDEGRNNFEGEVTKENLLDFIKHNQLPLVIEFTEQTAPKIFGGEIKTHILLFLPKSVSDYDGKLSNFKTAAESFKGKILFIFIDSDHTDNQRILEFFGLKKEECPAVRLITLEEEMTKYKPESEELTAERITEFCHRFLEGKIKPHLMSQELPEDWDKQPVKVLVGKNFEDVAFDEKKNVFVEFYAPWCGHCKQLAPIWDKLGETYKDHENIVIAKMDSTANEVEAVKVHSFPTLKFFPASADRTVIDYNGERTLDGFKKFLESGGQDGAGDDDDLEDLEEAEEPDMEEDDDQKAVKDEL
Sequence of PDIA1 (P07237 18-508): as above

As for `CC(C)C[C@H](NC(=O)[C@H](Cc1ccccc1)NC(=O)c1cnccn1)B(O)O` [Bortezomib, reference compound], the IC50 turned out to be 2 nM in series [1] and 8 nM in series [2].
`COc1ccc(N2C(=O)/C(=C\c3ccc([N+](=O)[O-])s3)SC2=S)cc1` [CCF642, reference compound]: the “potency in restricting colony formation of RPMI-8226 compared to CD34+ HSPCs” value in series [3] is on record as around 20 fold. In series [4], the “number of downregulated genes” value amounted to 257 genes and the “number of upregulated genes” value was 311 genes. Besides, the “number of genes with changed expression compared to vehicle control” value in series [4] (2-fold change, p less than 0.05) amounted to 568 genes. Moreover, the solubility result in series [5] is recorded as “insolubility”. The IC50 entry in series [6] is reported as “sub-micromolar”. The “binding selectivity of CCF642, as reported previously” value in series [7] is given as “off-target bindings in addition to its binding to PDIA1”.
As for `O=C(CCC1CNc2ccccc21)NCCCOc1ccc(N2C(=O)/C(=C/c3ccc([N+](=O)[O-])s3)SC2=S)cc1` (stereo not shown) [CCF642-34A], the “ER stress response (induction of XBP-1S and CHOP)” value in series [8] is listed as “failed to induce acute ER stress response”.
